Test: Henry solubility constant Hcp at 298.15 K (mol/(m3 Pa))
Conditions: reference: McAuliffe (1966)

| SMILES | Henry solubility constant Hcp |
| --- | --- |
| C#CCC [1-butyne] | 0.00054 |
| C=CC(C)C [3-methyl-1-butene] | 1.9e-05 |
| C=CCC [1-butene] | 4e-05 |
| CC(C)C [2-methylpropane] | 8.5e-06 |
| C=C(C)C [2-methylpropene] | 4.8e-05 |

Now from value to molecule:

| Henry solubility constant Hcp | SMILES |
| --- | --- |
| 4.8e-05 | C=CC [propene] |
| 4.7e-06 | CC(C)(C)C [dimethylpropane] |
| 1.1e-05 | CCCC [butane] |
| 4.7e-05 | C=C [ethene] |
| 0.00092 | C#CC [propyne] |

From Sander's compilation of Henry's law constants (doi:10.1021/j100876a049)
